A short description of data set [1]: pKa determination.
Data set [2] in a line: Hygroscopicity of co-crystal versus free base. The format is physicochemical.
Data set [3] can be described thus: Stability under temperature and humidity conditions. The format is physicochemical. To be noted: exposed to range of temperature and humidity conditions.
In data set [4] the test system is MM1.S cells. Put plainly: Anti-proliferative assay (AlamarBlue) in MM1.S cells. The note with it: Homo sapiens, 72 h, 3 days of culture, read-out: MM1.S Antiproliferative GI50/μM. In kind it is cell-based. The protocol: Anti-proliferative assay The anti-proliferative effect of the compounds was assessed by AlamarBlue assay in MM1.S cells which were originally derived from a multiple myeloma patient. This assay is based on Resazurin, a non-fluorescent indicator dye converted to bright red-fluorescent resorufin via the reduction reactions of metabolically active cells. The amount of fluorescence produced is proportional to the number of living cells. MM.1S cells are cultured in RPMI-1640 medium (Gibco®) plus 10% Fetal bovine serum (FBS) and 1 mM L-glutamine. 12-24 hours before compound dosing, 90 μL of cell suspension (18,750 cells) was seeded into 96-well microtiter plates (black, flat bottom). On the day of compound dosing, compounds were serially diluted 1:3 in 100% DMSO using columns 2-10 of a 96-well microtiter plate. Column 11 of compound serial plate contained only DMSO. All wells were then further diluted 1:30 in media. 10 μL of compound or DMSO alone in media was added to cell plates columns 2-11 in triplicate. In addition, 1 plate had 10 μL of media added and was developed using alamar blue. Plates developed on the day of compound addition were referred to as Day 0. Dosed plates were cultured 3 days under normal conditions (RPMI-1640 plus 10% FBS and 1 mM L-glutamine) After 3 days of culture, dosed plates are developed using either MTS or alamar blue. For each compound concentration, % net growth was calculated by
(Day 3 dosed well-Average Day 0)/(Average Day 3 DMSO control-Average Day 0). The GI50, the concentration that causes 50% of growth inhibition, of each compound was calculated using the % net growth as defined by National Cancer Institute (NCI).
In general terms: Resazurin is reduced to fluorescent resorufin, in cell work by metabolically active cells.

For data set [5], the target named is T1, BRDT (2) (Homo sapiens, UniProt Q58F21).
T1 construct: purchased Discoverx (BROMOscan service)
Put plainly: BROMOscan assay (DiscoverX) BRDT(2). In kind it is binding. The protocol:
(§1) BROMOscan™ Assay (ex Discoverx)
(§2) The ability of the compounds to bind to a bromodomain protein was tested by Discoverx using their proprietory ligand binding site-directed competition assay. Supplied compounds were anonymised.
(§3) The BROMOscan assay is based on the principle that test compounds that bind the bromodomain protein prevent its binding to an immobilized ligand thus reducing the amount of protein captured on a solid support. […] Screening “hits” are identified by measuring the amount of bromodomain captured in test versus control samples by using a quantitative, precise and ultra-sensitive qPCR method that detects the associated DNA label. In a similar manner, dissociation constants (Kds) for test compound-bromodomain interactions are calculated by measuring the amount of bromodomain protein captured on the solid support as a function of the test compound concentration.

Data set [6] in a line: physchem.
The target of data set [7] is T2, BRD3 (2) (Homo sapiens, UniProt Q15059).
T2 construct: purchased Discoverx (BROMOscan service)
T2 sequence (Q15059 306-415 limits assumed): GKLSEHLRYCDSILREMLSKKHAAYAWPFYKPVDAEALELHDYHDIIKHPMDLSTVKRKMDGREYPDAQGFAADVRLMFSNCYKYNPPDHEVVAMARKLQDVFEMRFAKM
Put plainly: BROMOscan assay (DiscoverX) BRD3(2). The format is binding. The protocol:
as §1, §2, §3

For data set [8], the target named is T3, BRD3 (1) (Homo sapiens, UniProt Q15059).
T3 construct: purchased Discoverx (BROMOscan service)
T3 sequence (Q15059 34-140 limits assumed): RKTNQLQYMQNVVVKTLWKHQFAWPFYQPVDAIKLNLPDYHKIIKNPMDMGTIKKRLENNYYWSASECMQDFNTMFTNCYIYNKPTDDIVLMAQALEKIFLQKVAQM
Put plainly: BROMOscan assay (DiscoverX) BRD3(1). In kind it is binding. The protocol: as §1, §2, §3

Data set [9] has as its target T4, BRDT (1) (Homo sapiens, UniProt Q58F21).
T4 construct: purchased Discoverx (BROMOscan service)
The data set is described as follows: BROMOscan assay (DiscoverX) BRDT(1). In kind it is binding. On the procedure:
as §1, §2, §3

Data set [10] concerns the target T5, BRD4 (2) (Homo sapiens, UniProt O60885).
T5 construct: purchased Discoverx (BROMOscan service)
Put plainly: BROMOscan assay (DiscoverX) BRD4(2). The format is binding. On the procedure:
as §1, §2, §3

Data set [11] has as its target T6, BRD2 (1) (Homo sapiens, UniProt P25440).
T6 construct: purchased Discoverx (BROMOscan service)
The data set is described as follows: BROMOscan assay (DiscoverX) BRD2(1). The format is binding. On the procedure:
as §1, §2, §3

Data set [12] has as its target T7, BRD4 (1) (Homo sapiens, UniProt O60885). The data set is described as follows: BROMOscan assay (DiscoverX) BRD4(1). In kind it is binding. More on the design: purchased Discoverx (BROMOscan service). The protocol: as §1, §2, §3
The subject of data set [13] is cMyc protein. Put plainly: Assay monitoring cMyc protein modulation in MM1.S cells (flow cytometry). The format is cell-based. To be noted: Homo sapiens, c-Myc protein level, 16 hours treatment, read-out: MM1.S “MoA” IC50/μM. On the procedure: Assay Monitoring cMyc Protein Modulation
Multiple myeloma MM1.S cells were cultured in RPMI-1640 medium containing 10% FBS and 1% L-glutamine under standardized conditions in a humidified incubator (37° C. and 5% CO2). The impact of cMyc protein modulation induced by bromodomain inhibitors was assessed by staining and quantifying c-Myc protein level after compound treatment using a flow cytometer Assay, carried out in 96-well plate format with 200K cells per well. Cells were treated with serially diluted compounds 16 hours before fixing with 2% paraformaldehyde (final concentration) for 10 minutes at 37° C. After being permeablized by ice cold 90% methanol at 4° C. for 30 min, cells were washed, blocked by buffer (0.5% FBS in phosphate-buffered saline (PBS) buffer) for 10 minutes at room temperature, and stained with cMyc antibody for 1 hour (Cell Signaling Technology®5605, 1:200 dilution). Cells were washed and stained by incubating with Alexa-488 conjugated anti-Rabbit IgG (Cell Signaling Technology®#4412, 1:1000 dilution) at RT for 30 minutes. After staining, cells were washed again and fixed with 2% paraformaldehyde in PBS and ready for analysis by BD FACSCalibur™ flow cytometer. Fluorescence geometric mean was calculated through FlowJo (TreeStar Inc), maximal inhibition signal was determined by control compound treatment at high dose across each plate, and minimal inhibition signal was determined by DMSO treatment. IC50 was calculated by fitting the dose-response data points which are normalized against max and min signals as percentage of inhibition using a standard 4-Parameter-Logistic nonlinear regression model.
In general terms: In flow cytometry, cells or beads pass a laser one at a time.

The target of data set [14] is T7, BRD4 (1). Put plainly: Alpha-Screen assay, BRD4 BD1. In kind it is binding. The note with it: 6His-TEV-BRD4 residues 42-169 (BD1), H4K5,8,12,16(Ac)4-biotin peptide. On the set-up: 6His-TEV-BRD4, amino acid residues 42-169, corresponding to the BD1 domain. The protocol:
The ability of the compounds to bind to a bromodomain protein was tested in an AlphaScreen® assay. The assay is based on the interaction between Histidine-tagged bromodomain protein which can bind to Nickel-chelate donor beads, and a Biotinylated acetyl lysine peptide corresponding to a histone amino acid sequence, which can bind to streptavidin-conjugated acceptor beads. The protein-peptide interaction can be detected by light emission at 520-620 nm. In the presence of compounds which bind to BRD4 a lower signal is observed as the protein-peptide interaction is reduced. • 1. The assay was performed as follows: —Greiner BioOne (cat no. 784075) compound plates were used. Compounds were prepared using the Labcyte Echo Acoustic Dispenser with compounds in a final volume of 40 nl per well normalised to 0.5% (v/v) DMSO under final assay conditions. Compounds were tested in 12 point singlicate concentration response format. • 2. 4 μl of BRD4 protein (6His-TEV-BRD4, amino acid residues 42-169, corresponding to the BD1 domain) (final assay concentration=50 nM) per well was added using the Beckman Coulter BioRAPTR® Flying Reagent Dispensor Microfluidic Workstation. • 3. Incubated for 30 minutes at room temperature. • 4. Added 4 μl of acetyl lysine peptide (H4K5,8,12,16(Ac)4-biotin:(NH2-) YSGRG(K-Ac)GG(K-Ac)GLG(K-Ac)GGA(K-Ac)RHR(K-Biotin)(—COOH)) (final assay concentration=50 nM) per well using the Beckman Coulter BioRAPTR® Flying Reagent Dispensor Microfluidic Workstation. • 5. Incubated for 30 minutes at room temperature. • 6. Added 4 μl of Nickel & Streptavidin-bead solution pre-mixed (beads supplied by Perkin Elmer) per well using the BioRaptr as before (final assay concentration=4 μg/ml). Kept plates in the dark after addition. • 7. Incubated for 60 minutes at room temperature keeping the assay plate in the dark • 8. Plates were then read using the Perkin Elmer Envision plate reader, laser excitation at 680 nm and emission detected at 520-620 nm. • 9. Data was analysed using Genedata software and IC50 values calculated.
In general terms: Bead proximity is the source of the signal in Alpha formats.

The target in data set [15] is T8, BRD2 (2) (Homo sapiens, UniProt P25440).
T8 construct: purchased Discoverx (BROMOscan service)
T8 sequence (P25440 344-453 limits assumed): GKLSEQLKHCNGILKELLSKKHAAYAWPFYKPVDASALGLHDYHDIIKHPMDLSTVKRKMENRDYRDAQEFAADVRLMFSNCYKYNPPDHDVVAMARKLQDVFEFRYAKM
The data set is described as follows: BROMOscan assay (DiscoverX) BRD2(2). The format is binding. The protocol:
as §1, §2, §3

The subject of data set [16] is MV-4-11 cells. The data set is described as follows: MV-4-11 xenograft model. In kind it is in vivo, mouse. To be noted: CB17 SCID mice, 10 mg/kg PO qd for 21 days, FIG. 5. The protocol:
Compound A was also investigated in a xenograft model as described below.
Female CB17 SCID mice aged 6 to 8 weeks were obtained from Charles River Laboratories (Wilmington, Mass.) and maintained under specific-pathogen-free conditions in an AAALAC (Association for Assessment and Accreditation of Laboratory Animal Care)—accredited facility. Irradiated food and autoclaved water were provided ad libitum.
MV-4-11 cells ([…]) were resuspended in 0.1 ml of medium without serum and Matrigel (Becton Dickinson) at a 1:1 ratio. Cells (10^7/mouse) were injected subcutaneouly into the right flank of mice. Tumors were allowed to grow until they reached an average volume of 200 mm^3 for efficacy and then the mice were randomized into groups of 8. Compound A was solubilized in 0.5% HPMC/0.1% Tween80 for dosing. For efficacy, either vehicle or Compound A was administered PO once a day (qd) for 21 days at 10 mg/kg (mpk). Body weight and tumour volume were measured twice a week for 21 days.

Where only a bound is given, the exact number is not on record here.

T6 sequence (P25440 74-180 limits assumed): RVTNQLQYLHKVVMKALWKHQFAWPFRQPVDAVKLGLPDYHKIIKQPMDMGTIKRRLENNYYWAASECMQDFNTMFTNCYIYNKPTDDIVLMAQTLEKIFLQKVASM

In general, pKa refers to the pH at which an ionisable group is half protonated. Low values mean a stronger acid or weaker base, high ones a weaker acid or stronger base. `O=C(O)c1ccc2cc(O)ccc2c1` [6-hydroxy-2-naphthoic acid] showed a pKa in data set [1] of 4.3.

In the case of `COc1nnc2ccc(N3CCC(c4ccc(OCCN5CCN(C)C(=O)[C@H]5C)cc4)CC3)nn12.O=C(O)c1ccc2cc(O)ccc2c1` [(R)-4-(2-(4-(1-(3-methoxy-[1,2,4]triazolo[4,3-b]pyridazin-6-yl)piperidin-4-yl)phenoxy)ethyl)-1,3-dimethylpiperazin-2-one:6-hydroxy-2-naphthoic acid (1:1) co-crystal], the “Hygroscopicity compared to Compound A free base” value in [2] was “significantly less hydroscopic than Compound A free base”. The “Stability compared to Compound A free base” value in [3] is “more stable than Compound A free base”.

What is called Kd is the free concentration of one partner at which half of the binding sites on the other are occupied at equilibrium, for simple one-to-one binding. The low end stands for a tighter complex, the high end for a looser complex. Regarding `COc1nnc2ccc(N3CCC(c4ccc(OCCN5CCN(C)C(=O)[C@H]5C)cc4)CC3)nn12` [Example 1, (R)-4-(2-(4-(1-(3-methoxy-[1,2,4]triazolo[4,3-b]pyridazin-6-yl)piperidin-4-yl)phenoxy)ethyl)-1,3-dimethylpiperazin-2-one], in data set [4], the GI50 was determined as 0.0049 µM. For the same compound, the dissociation constant Kd in [5] is 0.45 µM; in [7], 0.43 µM; in data set [8] it was 0.064 µM; in data set [9], 0.095 µM; in data set [10], 0.13 µM; in [11] it was 0.1 µM. Further, the Kd in data set [12] was 0.047 µM; in data set [15], 0.28 µM. The pKa in data set [6] was less than 1. For the same compound, the IC50 is 0.011 µM in [13] and 0.12 µM in [14]. Besides, the “Tumour growth inhibition (tumour volume)” value in data set [16] is “Tumour Growth Inhibition”.

Consider `COc1nnc2ccc(N3CCC(c4ccc(OCCN5[C@H](C)CN(C(C)=O)C[C@@H]5C)cc4)CC3)nn12` [Example 2, 1-((3S,5R)-4-(2-(4-(1-(3-methoxy-[1,2,4]triazolo[4,3-b]pyridazin-6-yl)piperidin-4-yl)phenoxy)ethyl)-3,5-dimethylpiperazin-1-yl)ethanone], for which, in data set [4], the GI50 was less than 0.002 µM. The Kd in [5] was 1.1 µM; in [7], 0.92 µM; in data set [8], 0.057 µM; in data set [9] it was 0.035 µM; in [10] it was 0.29 µM; in data set [11], 0.083 µM. For the same compound, the equilibrium dissociation constant (Kd) in data set [12] turned out to be 0.026 µM; in [15] it was 0.35 µM. Also, the IC50 was less than 0.002 µM in [13] and 0.035 µM in data set [14].

In the case of `COc1nnc2ccc(N3CCC(c4ccc(OCCCN5CCN(C)C(=O)[C@H]5C)cc4)CC3)nn12` [Example 3, (R)-4-(3-(4-(1-(3-methoxy-[1,2,4]triazolo[4,3-b]pyridazin-6-yl)piperidin-4-yl)phenoxy)propyl)-1,3-dimethylpiperazin-2-one], the GI50 in [4] amounted to 0.0075 µM. Besides, the Kd in data set [5] was 0.99 µM; in [7], 0.67 µM; in data set [8], 0.11 µM; in data set [9], 0.093 µM; in data set [10], 0.34 µM; in [11], 0.16 µM. In addition, the Kd in [12] was found to be 0.11 µM; in [15] it was 0.53 µM. The IC50 in [13] was 0.025 µM; in [14] it was 0.3 µM.

Regarding `COc1nnc2ccc(N3CCC(c4ccc(OCCCN5[C@H](C)CN(C(C)=O)C[C@@H]5C)cc4)CC3)nn12` [Example 4, 1-((3R,5S)-4-(3-(4-(1-(3-methoxy-[1,2,4]triazolo[4,3-b]pyridazin-6-yl)piperidin-4-yl)phenoxy)propyl)-3,5-dimethylpiperazin-1-yl)ethanone], the GI50 in [4] stood at 0.0051 µM. Also, the figures for the Kd in data set [10] and in data set [12] were 0.25 µM and 0.057 µM, respectively. The figures for the IC50 in [13] and in data set [14] were 0.012 µM and 0.14 µM, respectively.

These data come from patent US10407432B2, “[1,2,4]triazolo[4,3-B]pyridazines for use in the treatment of proliferative diseases” (AstraZeneca AB, priority 2014, dated 2019).
